Source: patent US12673946B2, “Pyrimidin-4(3H)-one derivatives as TRPV4 antagonists” (RaQualia Pharma Inc., priority 2020, dated 2026)

Biological target: T1, human TRPV4 (Homo sapiens, UniProt Q9HBA0)
T1 construct: host or cells: tetracycline-inducible Flp-In T-REx 293 cells
Assay: Hypotonicity-induced Ca2+ influx (Fluo-4, FDSS)
Format: cell-based
Experimental: Hypotonicity-Induced Ca^2+ Influx
TRPV4 channel activation/opening results in an influx of Ca^2+ (Liedtke, W. et al., 2000 (NPL 1)). The resulting changes in intracellular calcium are monitored using a Ca^2+ sensitive fluorescent dye Fluo-4 (Invitrogen). Dye loaded cells are treated with the test compounds for 5 minutes prior to the addition of a hypotonic solution and the inhibition of the hypotonicity-induced activation is recorded.
Forty microL of tetracycline-inducible Flp-In T-REx 293 cells (Invitrogen) stably expressing human TRPV4 are seeded onto the poly-D-lysine coated 384-well plate (Corning) at a density of 10,000 cells per well. The following day, TRPV4 expression is induced by adding 0.5 microg/mL tetracycline for 20-24 hours. On the day of the experiment, the media is removed and replaced with 40 microL of dye loading buffer [1 microM Fluo-4 AM (Invitrogen), 0.01% Pluronic F-127, and 20 mM HEPES in Hanks' balanced salt solutions (HBSS; Invitrogen)] and then the cells are incubated for 60 minutes at 25° C. Dye is then removed and replaced with 20 microL of assay buffer (20 mM HEPES in HBSS). Five minutes prior to the fluorescence measurement, 10 microL of test compound is added to the cells. Using the FDSS instrument (Hamamatsu Photonics), 30 microL of hypotonic solution (90 mM D-mannitol and 1.26 mM CaCl2 in ultrapure water) is added 30 seconds after the start of measurement. The calcium flux signal is recorded for a total of 4.5 minutes.

[1] = Flp-In T-REx 293 cells expressing human TRPV4, examples listed under heading 'Human IC50<50 nM'
[2] = Flp-In T-REx 293 cells stably expressing human TRPV4, compounds listed by potency bin (<10 nM Tables 96-1/96-2, <3 nM Table 97)

T1 sequence (Q9HBA0 whole entry): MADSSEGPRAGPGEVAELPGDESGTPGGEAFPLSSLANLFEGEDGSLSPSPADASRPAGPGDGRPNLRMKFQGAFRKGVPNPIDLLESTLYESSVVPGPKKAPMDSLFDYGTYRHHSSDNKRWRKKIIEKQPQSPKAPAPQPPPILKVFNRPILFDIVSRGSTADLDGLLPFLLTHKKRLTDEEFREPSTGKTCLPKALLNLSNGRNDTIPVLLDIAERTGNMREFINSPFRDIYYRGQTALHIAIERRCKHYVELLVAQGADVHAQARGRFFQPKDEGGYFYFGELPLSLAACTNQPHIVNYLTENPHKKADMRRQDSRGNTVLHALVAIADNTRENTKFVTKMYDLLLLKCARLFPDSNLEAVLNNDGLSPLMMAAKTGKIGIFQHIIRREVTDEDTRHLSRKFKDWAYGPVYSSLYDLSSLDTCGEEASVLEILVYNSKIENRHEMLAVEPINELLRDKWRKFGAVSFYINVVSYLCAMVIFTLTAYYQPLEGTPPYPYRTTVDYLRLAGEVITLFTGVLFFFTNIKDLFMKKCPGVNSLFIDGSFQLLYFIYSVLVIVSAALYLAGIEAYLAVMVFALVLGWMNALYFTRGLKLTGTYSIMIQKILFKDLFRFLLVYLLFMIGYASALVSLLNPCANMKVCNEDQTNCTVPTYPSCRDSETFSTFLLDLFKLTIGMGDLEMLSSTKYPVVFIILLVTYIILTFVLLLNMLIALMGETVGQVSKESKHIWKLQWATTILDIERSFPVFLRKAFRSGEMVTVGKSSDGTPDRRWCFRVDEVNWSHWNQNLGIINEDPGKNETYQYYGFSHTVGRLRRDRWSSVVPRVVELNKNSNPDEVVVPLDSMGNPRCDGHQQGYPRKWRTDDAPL

O=C(N1CCCc2nc(C3(c4cncc(-c5ccccc5)c4)CC3)[nH]c(=O)c2C1)C(F)(F)c1cccc(Cl)c1 [22-2] was tested, and the IC50 [1] was < 50 nM and the IC50 [2] was < 3 nM.

In the case of CC(C)c1cccc(C2(c3nc4c(c(=O)[nH]3)CN(C(=O)[C@H](O)c3cccc(-c5cccc(F)c5)c3)CCC4)CC2)c1 [51-8], the IC50 [1] is reported as < 50 nM and the IC50 [2] is reported as < 10 nM.

O=C(C(O)c1cccc(Cl)c1F)N1CCCc2nc(C3(c4ccccc4)CC3)[nH]c(=O)c2C1 (centres unmarked) [17-42] was tested, and the IC50 [1] was < 50 nM.

With O=C([C@H](O)c1cccc(-c2ccc(Cl)c(Cl)c2)c1)N1CCCc2nc(C3(c4ccccc4)CC3)[nH]c(=O)c2C1 [49-40] the IC50 [1] was < 50 nM and the IC50 [2] was < 3 nM.

CC(C)c1cncc(C2(c3nc4c(c(=O)[nH]3)CN(C(=O)[C@H](O)c3cccc(-c5ccc(C(F)(F)F)cc5)c3)CC4)CC2)c1 [47-2] was tested, and the IC50 [1] was < 50 nM and the IC50 [2] was < 10 nM.

In the case of CN(C(=O)c1csc(C2(c3nc4c(c(=O)[nH]3)CN(C(=O)[C@H](O)c3cccc(C(F)(F)F)c3)CCC4)CC2)c1)C(C)(C)C [59-19], the IC50 [1] is reported as < 50 nM.

For O=C(Cc1cccc(-c2ccc(OC(F)(F)F)cc2)c1)N1CCCc2nc(C3(c4cccc(Cl)c4)CC3)[nH]c(=O)c2C1 [17-129], the IC50 [1] was < 50 nM and the IC50 [2] was < 10 nM.

With Cc1cc(-c2cccc([C@@H](O)C(=O)N3CCCc4nc(C5(c6ccccc6)CC5)[nH]c(=O)c4C3)c2)ccc1Cl [49-51] the IC50 [1] was < 50 nM and the IC50 [2] was < 3 nM.

With CC(C)c1cncc(C2(c3nc4c(c(=O)[nH]3)CN(C(=O)[C@H](O)c3cccc(-c5ccnc(C(F)(F)F)c5)c3)CCC4)CC2)c1 [55-9] the IC50 [1] was < 50 nM and the IC50 [2] was < 10 nM.

In the case of O=C(C(O)c1cccc(-c2ccc(OC(F)(F)F)cc2)c1)N1CCCc2nc(C3(c4ccccc4)CC3)[nH]c(=O)c2C1 (centres unmarked) [49-11], the IC50 [1] is reported as < 50 nM and the IC50 [2] is reported as < 10 nM.

For Cc1ccc(-c2cccc(C(O)C(=O)N3CCc4nc(C5(c6ccccc6)CC5)[nH]c(=O)c4C3)c2)cc1 (centres unmarked) [44-56], the IC50 [1] was < 50 nM.

For O=C([C@H](O)c1cccc(-c2cccc(C(F)(F)F)c2)c1)N1CCCc2nc(C3(c4cc(-c5ccccc5)cs4)CC3)[nH]c(=O)c2C1 [54-14], the IC50 [1] was < 50 nM and the IC50 [2] was < 10 nM.

With CC(C)c1cccc(-c2cccc([C@@H](O)C(=O)N3CCCc4nc(C5(c6cccc(-c7csc8ccccc78)c6)CC5)[nH]c(=O)c4C3)c2)c1 [52-13] the IC50 [1] was < 50 nM and the IC50 [2] was < 10 nM.

With O=C(Cc1cccc(-c2cccc(C(F)(F)F)c2)c1)N1CCc2nc(C3(c4cccc(C5CCCCC5)c4)CC3)[nH]c(=O)c2C1 [27-4] the IC50 [1] was < 50 nM and the IC50 [2] was < 10 nM.

With O=C(Cc1cccc(-c2ccc(C(F)(F)F)cc2)c1)N1CCCc2nc(C3(c4ccccc4)CC3)[nH]c(=O)c2C1 [17-133] the IC50 [1] was < 50 nM and the IC50 [2] was < 10 nM.

O=C(Cc1cccc(-c2coc3ccccc23)c1)N1CCCc2nc(C3(c4cccc(Cl)c4)CC3)[nH]c(=O)c2C1 [17-118] was tested, and the IC50 [1] was < 50 nM and the IC50 [2] was < 10 nM.

With O=C(C(O)c1cccc(-c2cccc(C(F)(F)F)c2)n1)N1CCc2nc(C3(c4ccccc4)CC3)[nH]c(=O)c2C1 (centres unmarked) [48-1] the IC50 [1] was < 50 nM and the IC50 [2] was < 10 nM.

For O=C(C(O)c1cccc(-c2ccc(Cl)cc2)c1)N1CCCc2nc(C3(c4cccc(F)c4)CC3)[nH]c(=O)c2C1 (centres unmarked) [17-34], the IC50 [1] was < 50 nM and the IC50 [2] was < 10 nM.

For CC(C)c1cncc(C2(c3nc4c(c(=O)[nH]3)CN(C(=O)[C@H](O)c3cccc(-c5ccc(C(C)(C)C)cc5)c3)CC4)CC2)c1 [47-1], the IC50 [1] was < 50 nM and the IC50 [2] was < 10 nM.

Cc1cc(Cl)cc(-c2cccc([C@@H](O)C(=O)N3CCc4nc(C5(c6ccccc6)CC5)[nH]c(=O)c4C3)c2)c1 [44-96] was tested, and the IC50 [1] was < 50 nM and the IC50 [2] was < 10 nM.

For O=C(C(O)c1cccc(OCC(F)(F)F)c1)N1CCCc2nc(C3(c4cccc(Cl)c4)CC3)[nH]c(=O)c2C1 (centres unmarked) [17-50], the IC50 [1] was < 50 nM.

O=C([C@H](O)c1cccc(-c2ccc3c(c2)OCCCO3)c1)N1CCc2nc(C3(c4ccccc4)CC3)[nH]c(=O)c2C1 [44-106] was tested, and the IC50 [1] was < 50 nM.

For O=C(N1CCCc2nc(C3(c4ccccc4)CC3)[nH]c(=O)c2C1)C(F)(F)c1cccc(-c2cccc(C3CC3)c2)c1 [58-4], the IC50 [1] was < 50 nM and the IC50 [2] was < 10 nM.

With O=C([C@H](O)c1cccc(C(F)(F)F)c1)N1CCc2nc(C3(c4cccc(Oc5ccccc5)c4)CC3)[nH]c(=O)c2C1 [14-2] the IC50 [1] was < 50 nM and the IC50 [2] was < 10 nM.

With CC(C)c1cccc(C2(c3nc4c(c(=O)[nH]3)CN(C(=O)Cc3cccc(-c5cccc(C(F)(F)F)c5)c3)CCC4)CC2)c1 [31-13] the IC50 [1] was < 50 nM and the IC50 [2] was < 10 nM.

In the case of N#CC1(c2ccc(-c3cccc(C4(c5nc6c(c(=O)[nH]5)CN(C(=O)[C@H](O)c5cccc(Cl)c5)CCC6)CC4)c3)cc2)CC1 [40-15], the IC50 [1] is reported as < 50 nM and the IC50 [2] is reported as < 3 nM.

In the case of Cc1ccc(-c2cccc(C(O)C(=O)N3CCc4nc(C5(c6ccccc6)CC5)[nH]c(=O)c4C3)c2)cc1F (centres unmarked) [44-34], the IC50 [1] is reported as < 50 nM.

O=C([C@H](O)c1cccc(C(F)(F)F)c1)N1CCc2nc(C3(c4cc(C5CCC(F)(F)CC5)cs4)CC3)[nH]c(=O)c2C1 [26-1] was tested, and the IC50 [1] was < 50 nM and the IC50 [2] was < 10 nM.

In the case of O=C(Cc1cccc(-c2cccc(OC(F)(F)F)c2)c1)N1CCCc2nc(C3(c4cccc(Cl)c4)CC3)[nH]c(=O)c2C1 [57-8], the IC50 [1] is reported as < 50 nM and the IC50 [2] is reported as < 10 nM.

In the case of O=C([C@H](O)c1cccc(C(F)(F)F)c1)N1CCc2nc(C3(c4cc(C5CCCCCC5)cs4)CC3)[nH]c(=O)c2C1 [15-3], the IC50 [1] is reported as < 50 nM and the IC50 [2] is reported as < 3 nM.

For O=C(Cc1cccc(-c2cccc(Cl)c2)c1)N1CCCc2nc(C3(c4ccccc4)CC3)[nH]c(=O)c2C1 [17-136], the IC50 [1] was < 50 nM and the IC50 [2] was < 10 nM.

O=C([C@H](O)c1cccc(F)c1F)N1CCCc2nc(C3(c4cccc(Cl)c4)CC3)[nH]c(=O)c2C1 [17-35] was tested, and the IC50 [1] was < 50 nM and the IC50 [2] was < 10 nM.

In the case of O=C([C@H](O)c1cccc(C(F)(F)F)c1)N1CCCc2nc(C3(c4cccc(-c5ccc(C(F)(F)F)nc5)c4)CC3)[nH]c(=O)c2C1 [42-46], the IC50 [1] is reported as < 50 nM and the IC50 [2] is reported as < 3 nM.

O=C([C@H](O)c1cccc(Cl)c1)N1CCCc2nc(C3(c4cc(C5CCCCC5)cs4)CC3)[nH]c(=O)c2C1 [18-22] was tested, and the IC50 [1] was < 50 nM and the IC50 [2] was < 3 nM.

For CC(C)c1csc(C2(c3nc4c(c(=O)[nH]3)CN(C(=O)Cc3cccc(-c5cccc(Cl)c5)c3)CCC4)CC2)c1 [18-30], the IC50 [1] was < 50 nM and the IC50 [2] was < 10 nM.

For O=C([C@H](O)c1cccc(Cl)c1)N1CCCc2nc(C3(c4cc(C5CCCC5)cs4)CC3)[nH]c(=O)c2C1 [18-23], the IC50 [1] was < 50 nM and the IC50 [2] was < 3 nM.

O=C([C@H](O)c1cccc(C(F)(F)F)c1)N1CCCc2nc(C3(c4cccc(-c5cnc(N6CCCC6)nc5)c4)CC3)[nH]c(=O)c2C1 [42-3] was tested, and the IC50 [1] was < 50 nM and the IC50 [2] was < 3 nM.

In the case of O=C(Cc1ccccc1OCc1ccccc1)N1CCCc2nc(C3(c4ccccc4)CC3)[nH]c(=O)c2C1 [17-145], the IC50 [1] is reported as < 50 nM and the IC50 [2] is reported as < 10 nM.

With O=C(C(O)c1cccc(-c2ccc(F)cc2)c1)N1CCc2nc(C3(c4ccccc4)CC3)[nH]c(=O)c2C1 (centres unmarked) [44-50] the IC50 [1] was < 50 nM.

N#Cc1ccccc1-c1cccc(C2(c3nc4c(c(=O)[nH]3)CN(C(=O)[C@H](O)c3cccc(C(F)(F)F)c3)CCC4)CC2)c1 [42-63] was tested, and the IC50 [1] was < 50 nM and the IC50 [2] was < 10 nM.

O=C([C@H](O)c1cccc(C(F)(F)F)c1)N1CCCc2nc(C3(c4cccc(C5=CCC(C(F)(F)F)CC5)c4)CC3)[nH]c(=O)c2C1 (some centres unmarked) [42-35] was tested, and the IC50 [1] was < 50 nM and the IC50 [2] was < 10 nM.

With O=C(C(O)c1cccc(-c2cc(C(F)(F)F)cc(C(F)(F)F)c2)c1)N1CCc2nc(C3(c4ccccc4)CC3)[nH]c(=O)c2C1 (centres unmarked) [44-8] the IC50 [1] was < 50 nM and the IC50 [2] was < 10 nM.
